In patent US11208412B2 (DAEGU-GYEONGBUK MEDICAL INNOVATION FOUNDATION, priority 2017, dated 2021) one finds remaining binding data, which are given here for three molecules.

Holding throughout (experiment): Kinase selectivity, DiscoverX scanMAX Kinase assay panel (% control)
What all share (format): binding

Assay [1] concerns the target T1, kinases of the scanMAX Kinase assay panel (Homo sapiens, UniProt P30291).
T1 construct: purchased DiscoverX Co. (contract measurement) scanMAX Kinase assay panel
To be noted: kinase WEE1; 1 uM in DMSO. Put shortly: (§1)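 Read-out is % control, normalised so a positive-control compound sits at 0% and DMSO at 100%: (test − positive)/(negative − positive)×100. Each kinase received the compound at 1 uM in DMSO. A value below 35% counts as activity.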

Assay [2] has as its target T2, kinases of the scanMAX Kinase assay panel (Homo sapiens, UniProt Q13555).
T2 construct: purchased DiscoverX Co. (contract measurement) scanMAX Kinase assay panel
To be noted: CAMK2G; 1 uM. Put shortly:
as §1

The target of assay [3] is T3, kinases of the scanMAX Kinase assay panel (Homo sapiens, UniProt Q9H422).
T3 construct: purchased DiscoverX Co. (contract measurement) scanMAX Kinase assay panel
T3 sequence (Q9H422 whole entry): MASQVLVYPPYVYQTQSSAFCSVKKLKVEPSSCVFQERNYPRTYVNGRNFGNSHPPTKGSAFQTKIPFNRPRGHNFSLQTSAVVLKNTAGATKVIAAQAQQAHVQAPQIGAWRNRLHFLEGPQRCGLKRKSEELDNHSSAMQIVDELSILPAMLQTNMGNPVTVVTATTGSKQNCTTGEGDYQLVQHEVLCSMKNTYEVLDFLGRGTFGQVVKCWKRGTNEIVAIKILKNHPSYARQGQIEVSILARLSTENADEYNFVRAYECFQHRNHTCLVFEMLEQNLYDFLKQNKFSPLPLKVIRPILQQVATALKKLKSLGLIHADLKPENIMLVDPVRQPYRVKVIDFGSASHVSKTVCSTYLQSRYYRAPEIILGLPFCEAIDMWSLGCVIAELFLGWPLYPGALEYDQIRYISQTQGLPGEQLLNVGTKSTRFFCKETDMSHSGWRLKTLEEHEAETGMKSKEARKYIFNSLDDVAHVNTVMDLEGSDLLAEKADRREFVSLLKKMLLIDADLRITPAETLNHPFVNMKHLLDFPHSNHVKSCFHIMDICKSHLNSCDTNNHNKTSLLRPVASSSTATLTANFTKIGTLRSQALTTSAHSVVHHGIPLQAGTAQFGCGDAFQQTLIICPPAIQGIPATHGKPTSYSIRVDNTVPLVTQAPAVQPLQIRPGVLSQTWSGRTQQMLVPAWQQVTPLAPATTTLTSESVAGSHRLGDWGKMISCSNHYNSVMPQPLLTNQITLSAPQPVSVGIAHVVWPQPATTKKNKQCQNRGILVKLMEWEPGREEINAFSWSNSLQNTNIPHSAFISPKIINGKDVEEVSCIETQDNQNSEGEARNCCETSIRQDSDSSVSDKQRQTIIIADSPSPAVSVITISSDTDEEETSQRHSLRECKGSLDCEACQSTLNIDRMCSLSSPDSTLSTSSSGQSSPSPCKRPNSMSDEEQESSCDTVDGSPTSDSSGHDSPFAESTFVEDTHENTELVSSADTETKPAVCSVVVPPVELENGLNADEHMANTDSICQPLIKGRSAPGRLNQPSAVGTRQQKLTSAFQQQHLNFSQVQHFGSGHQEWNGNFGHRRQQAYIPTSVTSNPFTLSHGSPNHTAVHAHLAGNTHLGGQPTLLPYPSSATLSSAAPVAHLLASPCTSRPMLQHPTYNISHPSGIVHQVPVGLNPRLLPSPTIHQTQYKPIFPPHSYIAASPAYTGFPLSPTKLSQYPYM
The conditions noted are these: HIPK3; 1 uM. In outline: as §1

Assay [4] deals with T4, kinases of the scanMAX Kinase assay panel (Homo sapiens, UniProt Q15349).
T4 construct: purchased DiscoverX Co. (contract measurement) scanMAX Kinase assay panel
T4 sequence (Q15349 whole entry): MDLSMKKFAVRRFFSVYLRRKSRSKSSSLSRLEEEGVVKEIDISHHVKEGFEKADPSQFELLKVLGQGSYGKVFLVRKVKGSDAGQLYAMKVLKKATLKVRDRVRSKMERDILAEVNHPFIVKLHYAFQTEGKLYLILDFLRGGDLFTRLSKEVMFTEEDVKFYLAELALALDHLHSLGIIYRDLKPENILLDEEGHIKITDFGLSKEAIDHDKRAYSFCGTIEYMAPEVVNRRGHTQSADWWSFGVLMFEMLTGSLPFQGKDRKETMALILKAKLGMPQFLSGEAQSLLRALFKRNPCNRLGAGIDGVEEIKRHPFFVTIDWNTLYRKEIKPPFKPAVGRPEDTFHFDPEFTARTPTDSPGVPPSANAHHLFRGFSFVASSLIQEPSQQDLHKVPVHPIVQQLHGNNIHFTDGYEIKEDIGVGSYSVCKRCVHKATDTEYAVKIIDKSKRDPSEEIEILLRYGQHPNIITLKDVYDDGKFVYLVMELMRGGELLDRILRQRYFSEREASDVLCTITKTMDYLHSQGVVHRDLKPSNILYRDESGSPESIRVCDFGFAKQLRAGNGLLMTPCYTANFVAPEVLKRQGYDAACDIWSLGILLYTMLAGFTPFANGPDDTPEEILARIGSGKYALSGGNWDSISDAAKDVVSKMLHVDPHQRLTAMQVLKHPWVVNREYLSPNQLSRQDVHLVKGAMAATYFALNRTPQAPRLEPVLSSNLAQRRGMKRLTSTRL
To be noted: 1 uM in DMSO. In outline:
as §1

In assay [5] the target is T5, kinases of the scanMAX Kinase assay panel (Homo sapiens, UniProt O94806).
T5 construct: purchased DiscoverX Co. (contract measurement) scanMAX Kinase assay panel
T5 sequence (O94806 1-890): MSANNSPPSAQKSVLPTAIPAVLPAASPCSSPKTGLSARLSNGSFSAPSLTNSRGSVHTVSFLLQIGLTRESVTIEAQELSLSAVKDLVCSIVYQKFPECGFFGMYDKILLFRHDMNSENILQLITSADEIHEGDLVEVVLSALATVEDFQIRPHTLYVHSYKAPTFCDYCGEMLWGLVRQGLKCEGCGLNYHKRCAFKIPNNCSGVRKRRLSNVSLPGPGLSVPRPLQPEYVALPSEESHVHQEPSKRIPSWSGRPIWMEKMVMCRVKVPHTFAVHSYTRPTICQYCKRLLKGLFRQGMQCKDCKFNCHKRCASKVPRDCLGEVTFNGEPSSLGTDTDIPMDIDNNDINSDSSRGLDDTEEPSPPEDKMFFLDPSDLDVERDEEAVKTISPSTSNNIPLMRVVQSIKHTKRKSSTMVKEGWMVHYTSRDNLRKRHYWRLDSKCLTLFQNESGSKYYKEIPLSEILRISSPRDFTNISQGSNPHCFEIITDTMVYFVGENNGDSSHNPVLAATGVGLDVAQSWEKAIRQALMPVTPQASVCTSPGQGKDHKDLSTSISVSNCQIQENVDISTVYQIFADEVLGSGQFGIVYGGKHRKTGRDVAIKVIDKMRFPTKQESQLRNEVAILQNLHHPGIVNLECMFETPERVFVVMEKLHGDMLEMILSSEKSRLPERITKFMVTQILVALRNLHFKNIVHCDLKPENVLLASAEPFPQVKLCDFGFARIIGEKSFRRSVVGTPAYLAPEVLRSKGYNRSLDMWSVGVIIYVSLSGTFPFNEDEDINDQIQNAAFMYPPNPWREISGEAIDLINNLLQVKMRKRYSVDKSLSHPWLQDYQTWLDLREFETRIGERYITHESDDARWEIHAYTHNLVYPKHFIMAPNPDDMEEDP
The conditions noted are these: PRKD3; 1 uM. In outline:
as §1

Assay [6] has as its target T6, kinases of the scanMAX Kinase assay panel (Homo sapiens, UniProt Q9UBE8).
T6 construct: purchased DiscoverX Co. (contract measurement) scanMAX Kinase assay panel
T6 sequence (Q9UBE8 1-527): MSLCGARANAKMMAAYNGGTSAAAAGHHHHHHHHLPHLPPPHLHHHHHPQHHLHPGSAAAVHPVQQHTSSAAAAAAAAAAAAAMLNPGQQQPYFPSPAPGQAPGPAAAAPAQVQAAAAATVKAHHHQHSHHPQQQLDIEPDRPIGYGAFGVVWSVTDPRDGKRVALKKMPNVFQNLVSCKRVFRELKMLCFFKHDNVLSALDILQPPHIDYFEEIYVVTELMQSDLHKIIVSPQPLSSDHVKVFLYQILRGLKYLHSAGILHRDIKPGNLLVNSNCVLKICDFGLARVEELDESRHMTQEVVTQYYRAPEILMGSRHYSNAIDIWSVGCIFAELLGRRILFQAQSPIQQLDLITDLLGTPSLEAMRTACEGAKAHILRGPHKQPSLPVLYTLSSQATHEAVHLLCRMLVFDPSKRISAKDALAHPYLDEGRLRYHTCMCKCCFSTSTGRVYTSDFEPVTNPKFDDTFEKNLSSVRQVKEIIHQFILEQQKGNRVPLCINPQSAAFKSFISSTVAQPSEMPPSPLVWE
The conditions noted are these: NLK; 1 uM. Put shortly:
as §1

Assay [7] deals with T7, kinases of the scanMAX Kinase assay panel (Homo sapiens, UniProt Q9UEE5).
T7 construct: purchased DiscoverX Co. (contract measurement) scanMAX Kinase assay panel
T7 sequence (Q9UEE5 1-414): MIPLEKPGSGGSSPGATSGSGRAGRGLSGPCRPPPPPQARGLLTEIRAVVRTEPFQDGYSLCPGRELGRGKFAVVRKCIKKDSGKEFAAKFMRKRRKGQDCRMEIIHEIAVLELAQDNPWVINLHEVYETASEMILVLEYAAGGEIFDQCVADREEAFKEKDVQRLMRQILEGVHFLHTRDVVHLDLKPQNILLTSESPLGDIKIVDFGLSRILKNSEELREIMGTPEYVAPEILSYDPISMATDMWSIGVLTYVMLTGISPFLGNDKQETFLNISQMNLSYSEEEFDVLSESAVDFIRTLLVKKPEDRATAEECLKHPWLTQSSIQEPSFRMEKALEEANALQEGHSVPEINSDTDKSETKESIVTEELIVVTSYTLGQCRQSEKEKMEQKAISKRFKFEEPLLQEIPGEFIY
The conditions noted are these: DRAK1; 1 uM. In outline:
as §1

The target of assay [8] is T8, kinases of the scanMAX Kinase assay panel (Homo sapiens, UniProt O96017).
T8 construct: purchased DiscoverX Co. (contract measurement) scanMAX Kinase assay panel
T8 sequence (O96017 whole entry): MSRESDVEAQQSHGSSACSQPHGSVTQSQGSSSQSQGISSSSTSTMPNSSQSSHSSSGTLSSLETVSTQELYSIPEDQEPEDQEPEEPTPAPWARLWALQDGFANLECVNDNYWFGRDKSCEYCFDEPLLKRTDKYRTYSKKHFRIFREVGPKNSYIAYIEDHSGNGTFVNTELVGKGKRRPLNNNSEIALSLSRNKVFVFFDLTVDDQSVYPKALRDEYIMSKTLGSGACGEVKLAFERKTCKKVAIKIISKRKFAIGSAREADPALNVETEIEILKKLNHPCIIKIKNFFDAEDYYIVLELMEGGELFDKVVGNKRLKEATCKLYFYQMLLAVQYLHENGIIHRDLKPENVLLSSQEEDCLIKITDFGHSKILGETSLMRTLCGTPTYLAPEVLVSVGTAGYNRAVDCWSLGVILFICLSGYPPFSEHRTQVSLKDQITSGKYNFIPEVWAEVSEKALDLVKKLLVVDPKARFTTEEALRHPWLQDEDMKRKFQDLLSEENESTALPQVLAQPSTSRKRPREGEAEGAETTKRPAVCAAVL
To be noted: CHEK2; 1 uM. Put shortly: as §1

The target in assay [9] is T9, kinases of the scanMAX Kinase assay panel (Homo sapiens, UniProt P00533, G719C).
T9 construct: purchased DiscoverX Co. (contract measurement) scanMAX Kinase assay panel
T9 sequence (P00533 25-1210 G719C): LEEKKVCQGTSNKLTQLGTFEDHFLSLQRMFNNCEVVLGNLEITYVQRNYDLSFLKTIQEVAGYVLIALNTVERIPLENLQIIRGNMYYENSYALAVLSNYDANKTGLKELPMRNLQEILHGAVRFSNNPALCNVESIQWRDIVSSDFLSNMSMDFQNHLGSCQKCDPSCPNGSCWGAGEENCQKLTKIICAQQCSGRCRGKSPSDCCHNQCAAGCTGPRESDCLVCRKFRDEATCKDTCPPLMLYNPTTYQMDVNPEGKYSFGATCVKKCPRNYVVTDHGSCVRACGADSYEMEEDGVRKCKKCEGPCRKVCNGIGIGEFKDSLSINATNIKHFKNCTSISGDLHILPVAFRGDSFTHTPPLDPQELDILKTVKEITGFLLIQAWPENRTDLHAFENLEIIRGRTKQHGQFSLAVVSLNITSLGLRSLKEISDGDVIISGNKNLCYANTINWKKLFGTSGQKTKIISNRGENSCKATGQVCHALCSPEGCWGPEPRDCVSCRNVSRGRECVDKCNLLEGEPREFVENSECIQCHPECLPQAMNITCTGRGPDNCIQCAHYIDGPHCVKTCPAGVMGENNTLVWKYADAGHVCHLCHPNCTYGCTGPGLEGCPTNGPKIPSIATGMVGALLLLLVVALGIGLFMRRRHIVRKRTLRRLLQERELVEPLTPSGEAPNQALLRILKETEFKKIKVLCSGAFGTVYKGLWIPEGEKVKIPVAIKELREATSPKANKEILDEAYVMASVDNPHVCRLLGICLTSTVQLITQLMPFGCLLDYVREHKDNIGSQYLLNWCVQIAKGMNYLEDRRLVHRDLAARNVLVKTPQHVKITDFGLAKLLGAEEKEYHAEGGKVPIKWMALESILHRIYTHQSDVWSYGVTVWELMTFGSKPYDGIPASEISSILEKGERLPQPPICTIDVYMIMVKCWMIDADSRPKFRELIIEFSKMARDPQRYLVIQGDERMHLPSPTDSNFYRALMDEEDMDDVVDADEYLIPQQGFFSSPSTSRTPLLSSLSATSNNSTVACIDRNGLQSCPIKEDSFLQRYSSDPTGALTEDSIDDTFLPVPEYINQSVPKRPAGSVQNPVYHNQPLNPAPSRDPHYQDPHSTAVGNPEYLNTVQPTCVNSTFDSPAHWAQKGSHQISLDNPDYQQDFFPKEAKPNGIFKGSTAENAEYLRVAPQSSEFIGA
The conditions noted are these: EGFR(G719C); 1 uM. Put shortly:
as §1

Setting [10] is: kinase RSK3(Kin.Dom.1-N-terminal), read-out: % control, RSK3(Kin.Dom.1-N-terminal).
Setting [11] is: kinase RSK3(Kin.Dom.2-C-terminal), read-out: % control, RSK3(Kin.Dom.2-C-terminal).

Read-outs that look alike come from different tables or passages of the source.

T1 sequence (P30291 whole entry): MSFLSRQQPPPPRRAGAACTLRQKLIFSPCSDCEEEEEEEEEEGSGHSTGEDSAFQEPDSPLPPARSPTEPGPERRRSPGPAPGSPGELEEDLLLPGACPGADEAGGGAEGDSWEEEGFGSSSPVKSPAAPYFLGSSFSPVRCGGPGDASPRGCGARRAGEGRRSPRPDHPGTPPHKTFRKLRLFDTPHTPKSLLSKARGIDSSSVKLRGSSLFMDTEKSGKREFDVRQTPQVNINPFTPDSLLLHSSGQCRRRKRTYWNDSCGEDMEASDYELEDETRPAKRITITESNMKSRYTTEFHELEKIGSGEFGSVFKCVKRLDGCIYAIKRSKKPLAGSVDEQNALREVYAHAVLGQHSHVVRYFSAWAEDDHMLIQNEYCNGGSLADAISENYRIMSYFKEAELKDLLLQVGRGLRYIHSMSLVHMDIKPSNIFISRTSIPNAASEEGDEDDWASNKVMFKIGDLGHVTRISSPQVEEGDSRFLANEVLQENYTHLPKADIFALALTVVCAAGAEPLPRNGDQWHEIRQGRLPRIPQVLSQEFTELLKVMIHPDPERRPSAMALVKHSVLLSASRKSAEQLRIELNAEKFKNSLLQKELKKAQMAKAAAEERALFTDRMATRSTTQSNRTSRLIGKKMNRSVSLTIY
T2 sequence (Q13555 whole entry): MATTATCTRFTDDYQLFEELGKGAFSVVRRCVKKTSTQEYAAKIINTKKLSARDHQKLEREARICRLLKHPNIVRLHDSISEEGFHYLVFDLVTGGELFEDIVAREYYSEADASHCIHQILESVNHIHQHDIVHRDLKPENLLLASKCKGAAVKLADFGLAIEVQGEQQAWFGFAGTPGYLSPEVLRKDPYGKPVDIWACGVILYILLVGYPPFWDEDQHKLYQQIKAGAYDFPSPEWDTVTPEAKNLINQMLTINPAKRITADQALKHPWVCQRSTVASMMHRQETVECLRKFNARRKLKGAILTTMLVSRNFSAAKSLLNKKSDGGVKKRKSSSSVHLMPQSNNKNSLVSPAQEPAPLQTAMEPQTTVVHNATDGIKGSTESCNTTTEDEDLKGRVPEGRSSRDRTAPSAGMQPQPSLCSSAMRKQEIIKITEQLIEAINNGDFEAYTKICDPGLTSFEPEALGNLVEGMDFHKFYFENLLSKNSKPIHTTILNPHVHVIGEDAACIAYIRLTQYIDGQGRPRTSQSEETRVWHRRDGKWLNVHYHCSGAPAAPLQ

For `CC1(Nc2nc(Nc3cnn([C@H]4CCN(C5COC5)C[C@@H]4F)c3Cl)nc3[nH]cc(C#N)c23)CC1` [Example 52, 2-((5-chloro-1-((3S,4S)-3-fluoro-1-(oxetane-3-yl)piperidine-4-yl)-1H-pyrazole-4-yl)amino)((1-methylcyclopropyl)amino)-7H-pyrrolo[2,3-d]pyrimidine-5-carbonitrile], the remaining binding at 1 µM in assay [1] came to 100%; in assay [2], 53%; in assay [3] it was 6.2%; in assay [4] (setting [10]), 4.3%; in assay [4] (setting [11]), 28%; in [5] it was 0.7%. Further, the remaining binding at 1 µM in assay [6] came to 75%; in [7], 0.3%; in assay [8], 0%; in assay [9], 71%.

`CCNc1nc(Nc2ccc(C(=O)N3CCC(N4CCOCC4)CC3)cc2OC)nc2[nH]cc(C(F)(F)F)c12` [Example 104, (4-((4-(ethylamino)-5-(trifluoromethyl)-7H-pyrrolo[2,3-d]pyrimidine-2-yl)amino)-3-methoxyphenyl)(4-morpholinopiperidine-1-yl)methanone]: the remaining binding at 1 µM in assay [1] was determined as 100%; in [2] it was 80%; in assay [3], 16%; in assay [4] (setting [10]) it was 100%; in assay [4] (setting [11]), 66%; in [5] it was 17%. Besides, the remaining binding at 1 µM in [6] came out at 69%; in [7] it was 49%; in [8], 12%; in assay [9], 96%.

Turning to `CNc1nc(Nc2ccc(C(=O)N3CCOCC3)cc2OC)nc2[nH]cc(C#N)c12` [Example 1, 2-((2-methoxy-4-(morpholine-4-carbonyl)phenyl)amino)-4-(methylamino)-7H-pyrrolo[2,3-d]pyrimidine-5-carbonitrile], the remaining binding at 1 µM was found to be 78% in assay [1]; 88% in [2]; 64% in assay [3]; 90% in [4] (setting [10]); 23% in assay [4] (setting [11]); 39% in [5]. Besides, the remaining binding at 1 µM in [6] worked out at 98%; in [7], 37%; in assay [8], 7.7%; in [9], 82%.
